Source: ChEMBL document CHEMBL3885881, “DrugMatrix”

Species on record: Rattus norvegicus
Test: DrugMatrix - Regimen: Daily Repeat
Assay type: toxicity, organism-based, Sprague-Dawley
Design: regimen Daily Repeat, gender Male, age 6-8 weeks
Conditions: in vivo, iv, vehicle 100 % SALINE; for ABSOLUTE BASOPHIL / ABSOLUTE EOSINOPHIL / ABSOLUTE LYMPHOCYTE / ABSOLUTE MONOCYTE / ABSOLUTE SEGMENTED NEUTROPHIL / BASOPHIL / EOSINOPHIL / ERYTHROCYTE COUNT / HEMATOCRIT / HEMOGLOBIN / LEUKOCYTE COUNT / LYMPHOCYTE / MEAN CORPUSCULAR HEMOGLOBIN / MEAN CORPUSCULAR HEMOGLOBIN CONCENTRATION / MEAN CORPUSCULAR VOLUME / MONOCYTE / NEUTROPHIL / NUCLEATED RED BLOOD CELLS / PLATELET COUNT: tissue Blood; for ALANINE AMINOTRANSFERASE / ALBUMIN / ALKALINE PHOSPHATASE / ASPARTATE AMINOTRANSFERASE / BLOOD UREA NITROGEN / CARBON DIOXIDE / CHLORIDE / CHOLESTEROL / CREATINE PHOSPHOKINASE / CREATININE / GLUCOSE / LACTATE DEHYDROGENASE / LIPASE / PHOSPHORUS / POTASSIUM / SODIUM / TOTAL BILIRUBIN / TOTAL PROTEIN: tissue Plasma
[1] = 1 mg/kg, 72 h, dose level Low, time 3 day
[2] = 1 mg/kg, 120 h, dose level Low, time 5 day
[3] = 76 mg/kg, 72 h, dose level High, time 3 day
[4] = 76 mg/kg, 120 h, dose level High, time 5 day

With `C=CCN1CC[C@]23c4c5ccc(O)c4O[C@H]2C(=O)CC[C@@]3(O)[C@H]1C5` [NALOXONE] the “ABSOLUTE BASOPHIL” value [1] was 0 CELLS/uL, the “ABSOLUTE EOSINOPHIL” value [1] was 394 CELLS/uL and the “ABSOLUTE LYMPHOCYTE” value [1] was 14212 CELLS/uL. For the same molecule, the “ABSOLUTE MONOCYTE” value [1] was 229.67 CELLS/uL, the “ABSOLUTE SEGMENTED NEUTROPHIL” value [1] was 1597.67 CELLS/uL and the BASOPHIL [1] was 0%. For the same molecule, the EOSINOPHIL [1] was 2.33%, the “ERYTHROCYTE COUNT” value [1] was 5.29 x10E6/uL and the HEMATOCRIT [1] was 33.37%. For the same molecule, the HEMOGLOBIN [1] was 12.43 G/DL, the “LEUKOCYTE COUNT” value [1] was 16.43 x10E3/uL and the LYMPHOCYTE [1] was 86.33%. For the same molecule, the “MEAN CORPUSCULAR HEMOGLOBIN” value [1] was 23.5 pg, the “MEAN CORPUSCULAR HEMOGLOBIN CONCENTRATION” value [1] was 37.23 G/DL and the “MEAN CORPUSCULAR VOLUME” value [1] was 63.13 fL. For the same molecule, the MONOCYTE [1] was 1.33%, the NEUTROPHIL [1] was 10% and the “NUCLEATED RED BLOOD CELLS” value [1] was 0 /100WBC. For the same molecule, the “PLATELET COUNT” value [1] was 1087.33 x10E3/uL, the “ALANINE AMINOTRANSFERASE” value [1] was 52 u/L and the ALBUMIN [1] was 4.2 G/DL. The “ALKALINE PHOSPHATASE” value [1] was 368.67 u/L, the “ASPARTATE AMINOTRANSFERASE” value [1] was 96 u/L and the “BLOOD UREA NITROGEN” value [1] was 16.33 mg/dL. The “CARBON DIOXIDE” value [1] was 26.67 mmol/L, the CHLORIDE [1] was 103.67 MEQ/L and the CHOLESTEROL [1] was 70.67 mg/dL. For the same molecule, the “CREATINE PHOSPHOKINASE” value [1] was 678.67 u/L, the CREATININE [1] was 0.2 mg/dL and the GLUCOSE [1] was 178.33 mg/dL. The “LACTATE DEHYDROGENASE” value [1] was 116.67 u/L, the LIPASE [1] was 9.67 u/L and the PHOSPHORUS [1] was 12.63 mg/dL. For the same molecule, the POTASSIUM [1] was 6.32 MEQ/L, the SODIUM [1] was 144.23 MEQ/L and the “TOTAL BILIRUBIN” value [1] was 0.2 mg/dL. The “TOTAL PROTEIN” value [1] was 5.9 G/DL, the “ABSOLUTE BASOPHIL” value [2] was 0 CELLS/uL and the “ABSOLUTE EOSINOPHIL” value [2] was 66.67 CELLS/uL. The “ABSOLUTE LYMPHOCYTE” value [2] was 9301.33 CELLS/uL, the “ABSOLUTE MONOCYTE” value [2] was 105.67 CELLS/uL and the “ABSOLUTE SEGMENTED NEUTROPHIL” value [2] was 1026.33 CELLS/uL. For the same molecule, the BASOPHIL [2] was 0%, the EOSINOPHIL [2] was 0.67% and the “ERYTHROCYTE COUNT” value [2] was 5.74 x10E6/uL. The HEMATOCRIT [2] was 35.87%, the HEMOGLOBIN [2] was 13.53 G/DL and the “LEUKOCYTE COUNT” value [2] was 10.5 x10E3/uL. The LYMPHOCYTE [2] was 88.67%, the “MEAN CORPUSCULAR HEMOGLOBIN” value [2] was 23.57 pg and the “MEAN CORPUSCULAR HEMOGLOBIN CONCENTRATION” value [2] was 37.73 G/DL. The “MEAN CORPUSCULAR VOLUME” value [2] was 62.5 fL, the MONOCYTE [2] was 1% and the NEUTROPHIL [2] was 9.67%. The “NUCLEATED RED BLOOD CELLS” value [2] was 0.33 /100WBC, the “PLATELET COUNT” value [2] was 1255.33 x10E3/uL and the “ALANINE AMINOTRANSFERASE” value [2] was 45.67 u/L. For the same molecule, the ALBUMIN [2] was 4.1 G/DL, the “ALKALINE PHOSPHATASE” value [2] was 363 u/L and the “ASPARTATE AMINOTRANSFERASE” value [2] was 88.67 u/L. The “BLOOD UREA NITROGEN” value [2] was 15.67 mg/dL, the “CARBON DIOXIDE” value [2] was 25 mmol/L and the CHLORIDE [2] was 106 MEQ/L. For the same molecule, the CHOLESTEROL [2] was 63.67 mg/dL, the “CREATINE PHOSPHOKINASE” value [2] was 400.33 u/L and the CREATININE [2] was 0.18 mg/dL. The GLUCOSE [2] was 177.67 mg/dL, the “LACTATE DEHYDROGENASE” value [2] was 358 u/L and the LIPASE [2] was 8.33 u/L. The PHOSPHORUS [2] was 12.67 mg/dL, the POTASSIUM [2] was 6.28 MEQ/L and the SODIUM [2] was 144.83 MEQ/L. For the same molecule, the “TOTAL BILIRUBIN” value [2] was 0.23 mg/dL, the “TOTAL PROTEIN” value [2] was 6.2 G/DL and the “ABSOLUTE BASOPHIL” value [3] was 0 CELLS/uL. The “ABSOLUTE EOSINOPHIL” value [3] was 219 CELLS/uL, the “ABSOLUTE LYMPHOCYTE” value [3] was 13357.67 CELLS/uL and the “ABSOLUTE MONOCYTE” value [3] was 239.33 CELLS/uL. For the same molecule, the “ABSOLUTE SEGMENTED NEUTROPHIL” value [3] was 1117.33 CELLS/uL, the BASOPHIL [3] was 0% and the EOSINOPHIL [3] was 1.33%. The “ERYTHROCYTE COUNT” value [3] was 5.83 x10E6/uL, the HEMATOCRIT [3] was 36.57% and the HEMOGLOBIN [3] was 14.13 G/DL. The “LEUKOCYTE COUNT” value [3] was 14.93 x10E3/uL, the LYMPHOCYTE [3] was 89.67% and the “MEAN CORPUSCULAR HEMOGLOBIN” value [3] was 24.23 pg. The “MEAN CORPUSCULAR HEMOGLOBIN CONCENTRATION” value [3] was 38.67 G/DL, the “MEAN CORPUSCULAR VOLUME” value [3] was 62.73 fL and the MONOCYTE [3] was 1.67%. For the same molecule, the NEUTROPHIL [3] was 7.33%, the “NUCLEATED RED BLOOD CELLS” value [3] was 0 /100WBC and the “PLATELET COUNT” value [3] was 1424 x10E3/uL. The “ALANINE AMINOTRANSFERASE” value [3] was 46.67 u/L, the ALBUMIN [3] was 4.23 G/DL and the “ALKALINE PHOSPHATASE” value [3] was 304.67 u/L. The “ASPARTATE AMINOTRANSFERASE” value [3] was 92.33 u/L, the “BLOOD UREA NITROGEN” value [3] was 15.67 mg/dL and the “CARBON DIOXIDE” value [3] was 24.33 mmol/L. For the same molecule, the CHLORIDE [3] was 110.67 MEQ/L, the CHOLESTEROL [3] was 46 mg/dL and the “CREATINE PHOSPHOKINASE” value [3] was 383.33 u/L. The CREATININE [3] was 0.12 mg/dL, the GLUCOSE [3] was 104 mg/dL and the “LACTATE DEHYDROGENASE” value [3] was 123 u/L. The LIPASE [3] was 7.67 u/L, the PHOSPHORUS [3] was 14.33 mg/dL and the POTASSIUM [3] was 5.64 MEQ/L. The SODIUM [3] was 148.07 MEQ/L, the “TOTAL BILIRUBIN” value [3] was 0.1 mg/dL and the “TOTAL PROTEIN” value [3] was 6.3 G/DL. The “ABSOLUTE BASOPHIL” value [4] was 0 CELLS/uL, the “ABSOLUTE EOSINOPHIL” value [4] was 118.67 CELLS/uL and the “ABSOLUTE LYMPHOCYTE” value [4] was 15030.67 CELLS/uL. For the same molecule, the “ABSOLUTE MONOCYTE” value [4] was 170.67 CELLS/uL, the “ABSOLUTE SEGMENTED NEUTROPHIL” value [4] was 1746.67 CELLS/uL and the BASOPHIL [4] was 0%. For the same molecule, the EOSINOPHIL [4] was 0.67%, the “ERYTHROCYTE COUNT” value [4] was 5.72 x10E6/uL and the HEMATOCRIT [4] was 35.6%. For the same molecule, the HEMOGLOBIN [4] was 13.43 G/DL, the “LEUKOCYTE COUNT” value [4] was 17.07 x10E3/uL and the LYMPHOCYTE [4] was 88%. The “MEAN CORPUSCULAR HEMOGLOBIN” value [4] was 23.53 pg, the “MEAN CORPUSCULAR HEMOGLOBIN CONCENTRATION” value [4] was 37.77 G/DL and the “MEAN CORPUSCULAR VOLUME” value [4] was 62.37 fL. The MONOCYTE [4] was 1%, the NEUTROPHIL [4] was 10.33% and the “NUCLEATED RED BLOOD CELLS” value [4] was 0 /100WBC. The “PLATELET COUNT” value [4] was 1344.67 x10E3/uL, the “ALANINE AMINOTRANSFERASE” value [4] was 49.67 u/L and the ALBUMIN [4] was 4.07 G/DL. The “ALKALINE PHOSPHATASE” value [4] was 305 u/L, the “ASPARTATE AMINOTRANSFERASE” value [4] was 80.33 u/L and the “BLOOD UREA NITROGEN” value [4] was 13.67 mg/dL. For the same molecule, the “CARBON DIOXIDE” value [4] was 26.33 mmol/L, the CHLORIDE [4] was 105 MEQ/L and the CHOLESTEROL [4] was 52.33 mg/dL. The “CREATINE PHOSPHOKINASE” value [4] was 250.33 u/L, the CREATININE [4] was 0.19 mg/dL and the GLUCOSE [4] was 172.67 mg/dL. For the same molecule, the “LACTATE DEHYDROGENASE” value [4] was 79 u/L, the LIPASE [4] was 8 u/L and the PHOSPHORUS [4] was 12.5 mg/dL. The POTASSIUM [4] was 6.34 MEQ/L, the SODIUM [4] was 144.67 MEQ/L and the “TOTAL BILIRUBIN” value [4] was 0.13 mg/dL. For the same molecule, the “TOTAL PROTEIN” value [4] was 6.03 G/DL.
